Test results as given in US20080234262A1 (Wyeth, priority 2007, published 2008).

Assays:
breast line MDA468 = test: In vitro cell culture growth assay (MTS), MDA468; assay type: cell-based, human; conditions: MDA468 cells, three days after drug treatment
How it was run: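 MDA468 or LNCap cells received inhibitors one day after plating and were grown for three days. Viable cell density read by MTS conversion, absorbance 490 nm, expressed as percent of control growth versus vehicle-treated cells on the same plate.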

PI3K = PI3K (Homo sapiens, UniProt P42336); test: Fluorescence polarization assay for PI3K; assay type: biochemical; conditions: PI3Kα; read-out: PI3Kα IC50;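 also: PI3K kinase reaction on PIP2 with ATP, 30-60 min, product sensed by GST-GRP with red probe in fluorescence polarization (mP), controls without enzyme and at zero time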
Chain of PI3K (P42336 whole entry): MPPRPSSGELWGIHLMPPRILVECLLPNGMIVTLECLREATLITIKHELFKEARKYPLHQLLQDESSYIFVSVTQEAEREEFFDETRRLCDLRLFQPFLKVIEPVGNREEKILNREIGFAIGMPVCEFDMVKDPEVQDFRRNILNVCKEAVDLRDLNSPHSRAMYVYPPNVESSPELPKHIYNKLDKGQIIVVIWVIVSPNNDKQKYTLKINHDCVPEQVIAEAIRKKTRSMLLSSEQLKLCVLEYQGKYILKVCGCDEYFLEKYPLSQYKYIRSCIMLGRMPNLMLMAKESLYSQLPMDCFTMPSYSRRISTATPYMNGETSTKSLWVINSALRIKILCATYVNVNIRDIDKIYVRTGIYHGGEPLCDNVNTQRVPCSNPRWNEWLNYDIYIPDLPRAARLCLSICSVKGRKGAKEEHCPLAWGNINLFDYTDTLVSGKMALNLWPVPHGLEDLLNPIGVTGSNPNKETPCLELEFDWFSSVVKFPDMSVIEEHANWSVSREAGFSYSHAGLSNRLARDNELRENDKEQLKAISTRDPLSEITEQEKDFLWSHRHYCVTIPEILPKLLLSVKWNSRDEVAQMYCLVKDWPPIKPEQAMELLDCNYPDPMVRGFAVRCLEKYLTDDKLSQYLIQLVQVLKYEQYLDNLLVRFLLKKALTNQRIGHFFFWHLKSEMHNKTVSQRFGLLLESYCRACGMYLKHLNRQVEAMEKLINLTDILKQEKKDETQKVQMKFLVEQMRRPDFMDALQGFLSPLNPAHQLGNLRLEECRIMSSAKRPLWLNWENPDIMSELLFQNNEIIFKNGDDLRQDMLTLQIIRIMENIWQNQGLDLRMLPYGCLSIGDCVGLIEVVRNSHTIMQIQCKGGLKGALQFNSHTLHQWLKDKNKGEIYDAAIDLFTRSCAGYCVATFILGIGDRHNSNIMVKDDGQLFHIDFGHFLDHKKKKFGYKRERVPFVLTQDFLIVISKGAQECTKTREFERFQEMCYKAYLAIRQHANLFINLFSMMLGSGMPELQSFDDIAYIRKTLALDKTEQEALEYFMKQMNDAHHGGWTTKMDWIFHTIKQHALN
Chain of PI3K (P27986 whole entry partner): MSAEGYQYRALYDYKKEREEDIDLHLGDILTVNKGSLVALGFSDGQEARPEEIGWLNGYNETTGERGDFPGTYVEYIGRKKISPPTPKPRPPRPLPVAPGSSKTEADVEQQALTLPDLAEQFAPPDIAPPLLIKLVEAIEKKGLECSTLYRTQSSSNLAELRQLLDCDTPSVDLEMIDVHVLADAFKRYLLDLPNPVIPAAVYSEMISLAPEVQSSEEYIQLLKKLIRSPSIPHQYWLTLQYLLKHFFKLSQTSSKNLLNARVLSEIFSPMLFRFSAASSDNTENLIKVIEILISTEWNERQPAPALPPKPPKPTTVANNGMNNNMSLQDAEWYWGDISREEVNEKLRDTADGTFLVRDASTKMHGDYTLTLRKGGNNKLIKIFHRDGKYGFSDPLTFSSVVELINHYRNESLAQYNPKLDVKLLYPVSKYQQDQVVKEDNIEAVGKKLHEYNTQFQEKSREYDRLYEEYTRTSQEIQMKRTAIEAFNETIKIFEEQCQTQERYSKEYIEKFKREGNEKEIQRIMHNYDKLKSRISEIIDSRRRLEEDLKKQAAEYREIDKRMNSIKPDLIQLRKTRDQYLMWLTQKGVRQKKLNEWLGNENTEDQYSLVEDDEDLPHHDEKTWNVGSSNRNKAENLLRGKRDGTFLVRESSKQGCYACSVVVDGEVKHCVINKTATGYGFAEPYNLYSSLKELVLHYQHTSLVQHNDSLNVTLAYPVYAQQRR

prostate line LNCap = test: In vitro cell culture growth assay (MTS), LNCap; assay type: cell-based, human; conditions: LNCap cells, three days after drug treatment

SMILES: CCCOC(=O)N1CCC(n2ncc3c(N4CCOCC4)nc(-c4ccc(NC(=O)OC)cc4)nc32)CC1 [Compound 857, propyl 4-(6-{4-[(methoxycarbonyl)amino]phenyl}-4-morpholin-4-yl-1H-pyrazolo[3,4-d]pyrimidin-1-yl)piperidine-1-carboxylate]
- IC50 (breast line MDA468; Homo sapiens, 72 h): 5000 nM
- IC50 (PI3K): 2770 nM
- IC50 (prostate line LNCap; Homo sapiens, LNCaP, 72 h): 1600 nM

SMILES: CCNC(=O)Nc1ccc(-c2nc(N3CCOCC3)c3cnn(C4CCNCC4)c3n2)cc1 [Compound 773]
- IC50 (breast line MDA468; Homo sapiens, 72 h): 390 nM
- IC50 (PI3K): 306 nM
- IC50 (prostate line LNCap; Homo sapiens, LNCaP, 72 h): 620 nM

SMILES: CCn1ncc2c(N3CCOCC3)nc(-c3cccc(O)c3)nc21 [Compound 97]
- IC50 (breast line MDA468; Homo sapiens, 72 h): 1300 nM
- IC50 (PI3K): 18 nM
- IC50 (prostate line LNCap; Homo sapiens, LNCaP, 72 h): 310 nM

SMILES: CCOC(=O)N1CCC(n2ncc3c(N4CCOCC4)nc(-c4ccc(NC(=O)Nc5ccccc5)cc4)nc32)CC1 [Compound 814, ethyl 4-(6-{4-[(anilinocarbonyl)amino]phenyl}-4-morpholin-4-yl-1H-pyrazolo[3,4-d]pyrimidin-1-yl)piperidine-1-carboxylate]
- IC50 (breast line MDA468; Homo sapiens, 72 h): < 27 nM
- IC50 (PI3K): 34 nM
- IC50 (prostate line LNCap; Homo sapiens, LNCaP, 72 h): < 27 nM

SMILES: CNC(=O)Nc1ccc(-c2nc(N3CCOCC3)c3cnn(C4CCN(C(=O)c5ccccc5OC)CC4)c3n2)cc1 [Compound 611, 1-(4-{1-[1-(2-methoxybenzoyl)piperidin-4-yl]-4-morpholin-4-yl-1H-pyrazolo[3,4-d]pyrimidin-6-yl}phenyl)-3-methylurea]
- IC50 (breast line MDA468; Homo sapiens, 72 h): 330 nM
- IC50 (PI3K): 82 nM
- IC50 (prostate line LNCap; Homo sapiens, LNCaP, 72 h): < 27 nM

SMILES: COC(=O)N1CCC(n2ncc3c(N4CCOCC4)nc(-c4ccc(NC(=O)OCCN)cc4)nc32)CC1 [Compound 903, methyl 4-[6-(4-{[(2-aminoethoxy)carbonyl]amino}phenyl)-4-morpholin-4-yl-1H-pyrazolo[3,4-d]pyrimidin-1-yl]piperidine-1-carboxylate]
- IC50 (breast line MDA468; Homo sapiens, 72 h): 8000 nM
- IC50 (PI3K): 132 nM
- IC50 (prostate line LNCap; Homo sapiens, LNCaP, 72 h): 3200 nM

SMILES: CCOC(=O)N1CCC(n2ncc3c(N4CCOCC4)nc(-c4ccc(Nc5ncc[nH]5)cc4)nc32)CC1 [Compound 887, ethyl 4-{6-[4-(1H-imidazol-2-ylamino)phenyl]-4-morpholin-4-yl-1H-pyrazolo[3,4-d]pyrimidin-1-yl}piperidine-1-carboxylate]
- IC50 (breast line MDA468; Homo sapiens, 72 h): 2300 nM
- IC50 (PI3K): 168 nM
- IC50 (prostate line LNCap; Homo sapiens, LNCaP, 72 h): 1200 nM

SMILES: c1ccc(-n2ncc3c(N4CCOCC4)nc(-c4ccc[nH]4)nc32)cc1 [Compound 6]
- IC50 (breast line MDA468; Homo sapiens, 72 h): 11000 nM
- IC50 (PI3K): 1350 nM
- IC50 (prostate line LNCap; Homo sapiens, LNCaP, 72 h): 2400 nM

SMILES: COC(=O)N1CCC(n2ncc3c(N4CCOCC4)nc(-c4ccc5[nH]ccc5c4)nc32)CC1 [Example 244, methyl 4-[6-(1H-indol-5-yl)-4-morpholin-4-yl-1H-pyrazolo[3,4-d]pyrimidin-1-yl]piperidine-1-carboxylate]
- IC50 (breast line MDA468; Homo sapiens, 72 h): 2100 nM
- IC50 (PI3K): 3300 nM
- IC50 (prostate line LNCap; Homo sapiens, LNCaP, 72 h): 750 nM

SMILES: CCOC(=O)N1CCC(n2ncc3c(N4CCOC[C@@H]4C)nc(-c4ccc(NC(=O)Nc5ccccc5)cc4)nc32)CC1 [Compound 896, ethyl 4-(4-[(3S)-3-methylmorpholin-4-yl]-6-{4-[(phenylcarbamoyl)amino]phenyl}-1H-pyrazolo[3,4-d]pyrimidin-1-yl)piperidine-1-carboxylate]
- IC50 (breast line MDA468; Homo sapiens, 72 h): 800 nM
- IC50 (PI3K): 19 nM
- IC50 (prostate line LNCap; Homo sapiens, LNCaP, 72 h): 150 nM

SMILES: COC(=O)Nc1ccc(-c2nc(N3CCOCC3)c3cnn(C4CCN(Cc5ccc(Cl)cc5)CC4)c3n2)cc1 [Compound 695, methyl (4-{1-[1-(4-chlorobenzyl)piperidin-4-yl]-4-morpholin-4-yl-1H-pyrazolo[3,4-d]pyrimidin-6-yl}phenyl)carbamate]
- IC50 (breast line MDA468): 9000 nM
- IC50 (PI3K): 388 nM
- IC50 (prostate line LNCap): 2000 nM

SMILES: CNC(=O)Nc1ccc(-c2nc(N3CCOCC3)c3cnn(C4CCN(Cc5ccc(F)cc5)CC4)c3n2)cc1 [Compound 427, 1-(4-{1-[1-(4-fluorobenzyl)piperidin-4-yl]-4-morpholin-4-yl-1H-pyrazolo[3,4-d]pyrimidin-6-yl}phenyl)-3-methylurea]
- IC50 (breast line MDA468; Homo sapiens, 72 h): 200 nM
- IC50 (PI3K): 34 nM
- IC50 (prostate line LNCap; Homo sapiens, LNCaP, 72 h): 27 nM
